The source of these data is US8247444B2, “Anti-tumor effect of dimeric phthalide compound” (priority 2007, dated 2012).

In brackets after ≈: the same amount, converted by molar mass.

One assay relates to HDF. Kind of assay: Vascular endothelial cell inhibition assay (CCK-8), HDF. In kind it is cell-based. The note with it: Homo sapiens, 72 h. The method, then: (§1) 2×10^3 cells were seeded into a 96-well plate and cultured for 24 h. S1-S6 of different concentrations (0, 0.01, 0.1, 0.5, 1, 2.5, 5, 10, 20, 40, 80, 160 μg/ml, respectively) were added and incubated for 72 h, n=6 for each concentration. The inhibition of cell proliferation was detected by CCK-8 assay, the results were calculated as IC50, as describe in Example 3.

Assay [1] concerns H1299, H446, U251, U87MG, Bel-7402 and Kasumi-1 cells. Kind of assay: Inhibition effects on proliferation (CCK-8), various human cancer cells. In kind it is cell-based. The note with it: FIG. 2, 68 h. The method, then:
(§2) The human lung cancer cell H1299 and H446, glioma cell U251 and U87MG, and human hepatic cellular cancer Bel-7402 cell in logarithmic growth phase were digested with pancreatic enzyme, and then suspended into DMEM or RPMI1640 containing 10% fetal bovine serum. The leukemic cells Kasumi-1 need no digestion, and were suspended into RPMI1640 containing 10% fetal bovine serum directly after centrifugalization. The cell density was adjusted to 1×10^4 cells/ml through cell counting, and the cell suspensions were seeded into a 96-well plate respectively, 100 μl/well, totally 6 groups of cells. The adherent cells were cultured overnight, the suspended cells were added different concentration gradients of dimeric phthalide compounds (S1-S6) directly, n=6 for each concentration of a single agent. The final volume was 200 ul, and the balance was supplemented with the culture medium. The plate was then incubated for 68 hours in 37° C., saturated humidity, 5% CO2 cell incubator. The medium was aspirated and 72 μl/well fresh culture medium was added. 8 μl […] (CCK-8) was added into each well and cultured for 2 hours. The absorbance was measured at 450 nm. The results were calculated as the 50% inhibiting drug concentration, i.e. IC50, using Sigmoidal simulation function by software Origin 7.0.

A further assay concerns HL-60, H1299, U251 cells. Kind of assay: Inducing cell death (Rh123/PI flow cytometry). In kind it is cell-based, human. The note with it: 48 h, FIG. 5. The method, then:
S1-S6 of different concentrations (as shown in FIG. 5) were added into HL-60, H1299, U251 cells under good growing conditions. The cells were cultured for 48 h, and collected. The cells were incubated with rhodamine 123 (Rh123) of the final concentration of 10 μg/ml for 20 min at 37° C., and then washed with pre-cooled PBS twice. The cells were suspended into PBS, and PI of final concentration of 25 μg/ml was added. After incubated in the dark at room temperature for 15 min, mitochondria membrane potential and PI positive cells were detected by flow cytometry, the death rate was calculated as the rate of PI positive cells.
A general note: In flow cytometry, cells or beads pass a laser one at a time.

Another assay deals with SMMC-7721/Adr. Kind of assay: Growth inhibition of sensitive and drug-resistant cell lines (IC50), SMMC-7721/Adr. In kind it is cell-based. The note with it: Homo sapiens; SMMC-7721/Adr drug-resistant cells.
From the text: (§3) HL-60/ADR, MCF-7/ADR, K562/ADR, Bel-7402/5-FU, KBV200, SMMC-7721/Adr were respectively chemotherapeutics Adriamycin (ADR), 5-Fluorouracil (5-FU) or vincristine (VCR) drug-resistant sub-stains of HL-60, MCF-7, K562, Bel-7402, KB, SMMC-7721 cells (all from Chinese Academy of Medical Sciences). NB4-R2 was all trans-retinoic acid (ATRA) drug-resistant sub-stain (from Pathophysiology Research Department of Shanghai JiaoTong University). The main drug-resistance mechanism of K562/ADR was high expression of P-glycoprotein (P-gp), along with increased expression of Bcl-2. In addition to high expression of P-gp, the drug-resistance mechanism of MCF-7/ADR also related to the high expression of Breast Cancer Resistant Protein (BCRP). The main drug-resistance mechanism of HL-60/ADR was high expression of Multidrug Resistance Protein 1 (MRP1), along with high expression of Bcl-2, Bcl-xL. […] The main drug-resistance mechanism of KBV200 was high expression of P-gp and its increased activity. The drug-resistance mechanism of NB4-R2 on ATRA was mutation in the RAR gene locus.
as §2
(§4) The cancer cells (various cell lines as shown in table 1 or FIG. 3) were seeded 1×10^3 cells per well into a 96-well plate. The suspended cells were added different concentration of dimeric phthalide compounds (S1-S6) directly, and the adherent cells were cultured overnight and added different concentration of dimeric phthalide compounds (S1-S6). The different concentration of dimeric phthalide compounds were divided into 10 groups: 0, 0.1, 0.5, 1, 5, 10, 20, 40, 80, 160 μg/ml, n=6 for each concentration.
(§5) According to the method described in Example 2, […] was detected and IC50 was calculated. The experiment was repeated for 3 times.
(§6) The growth inhibition effects of dimers of S1-S6 on its sensitive cell lines as well as the drug-resistant sub-strains (IC50 (μg/ml)) were shown in table 1 and FIG. 3.

In assay [2] the test system is KB. Kind of assay: Growth inhibition of sensitive and drug-resistant cell lines (IC50), KB. The class given is cell-based. The note with it: Homo sapiens; KB cells, Table 1. On the procedure:
(§7) In the following Examples, the cell lines used were H1299, H446 (human lung cancer cell line), KB (human oral cavity carcinoma cell line), NB4, HL-60 (human leukemic cell line), U251 ? U87MG (human glioblastoma cell line), MCF-7 (human breast carcinoma cell line), Bel-7402 and SMMC7721 (human hepatic cellular cancer cell line), SW620 (human colon carcinoma cell line), HDF (human dermis fibroblast), HUVEC (human umbilical vein endothelial cell line) and Kasumi-1 (human acute myeloid leukaemia cell line), all from American Type Culture Collection (ATCC).
as §2, §4, §5, §6

Another assay concerns K562. Kind of assay: Growth inhibition of sensitive and drug-resistant cell lines (IC50), K562. In kind it is cell-based. The note with it: Homo sapiens; K562 cells. On the procedure: as §2, §4, §5, §6
For assay [3], the system named is drug-resistant cells of different mechanisms and sensitive cells. Kind of assay: Overcome drug resistance: efficacy on drug-resistant cells compared with sensitive cells. The class given is cell-based, human. The note with it: table 1 and FIG. 3. The method, then: as §4, §5
The subject of assay [4] is KB. Kind of assay: Vascular endothelial cell inhibition assay (CCK-8), KB. In kind it is cell-based. The note with it: Homo sapiens, 72 h, CCK-8, Table 2. On the procedure:
as §1

In a further assay the test system is KBv200. Kind of assay: Growth inhibition of sensitive and drug-resistant cell lines (IC50), KBv200. In kind it is cell-based. The note with it: Homo sapiens; KBv200 drug-resistant cells.
From the text: as §3, §2, §4, §5, §6

A further assay has as its system SMMC-7721. Kind of assay: Growth inhibition of sensitive and drug-resistant cell lines (IC50), SMMC-7721. The class given is cell-based. The note with it: Homo sapiens; SMMC-7721 cells. On the procedure:
as §7, §2, §4, §5, §6

Regarding `CCC/C=C1\OC(=O)C2=C1CCC1C2[C@@]23CC[C@@H]1C=C2C(=O)O/C3=C\CCC` (stereo partly shown) [S4], the IC50 (in general, the concentration that inhibits the measured activity by half) was determined as 82.2 mg/L (≈ 216 µM) in the assay on HDF; 22.7 ± 2.55 mg/L (≈ 59.6 µM) in the assay on SMMC-7721/Adr; 15.5 ± 3.22 mg/L (≈ 40.8 µM) with KB [2]; 11.5 ± 0.831 mg/L (≈ 30.3 µM) in the assay with K562; 21.4 mg/L (≈ 56.2 µM) in the assay on KB [4]; 17.4 ± 2.03 mg/L (≈ 45.9 µM) with KBv200. Further, the midpoint of inhibition with SMMC-7721, the IC50, lay at 19.4 ± 3.12 mg/L (≈ 51 µM). The “inhibition effect on proliferation of various human cancer cells” value in assay [1] was “best inhibition effects on most of the cancer cells”. In addition, the “inducing decrease of cell mitochondria membrane potential and cell death” value in the assay with HL-60, H1299, U251 cells was “best effect of inducing cell death”. The “efficacy on drug-resistant cells compared with sensitive cells” value in assay [3] is on record as “the best effect”.
